In ChEMBL document CHEMBL5715954, “Silencing c-Myc translation as a therapeutic strategy through targeting PI3Kδ and CK1ε in hematological malignancies” (Blood, 2017) one finds Activity data, which are given here for three compounds.

What all share (parameters): scale not given: the % may be the effect or the level left
Test [1] addresses Tyrosine-protein kinase HCK (Homo sapiens) (UniProt P08631). Briefly: Inhibition of human HCK assessed as enzyme activity at 1 uM using KVEKIGEGTYGVVYK as substrate preincubated for 20 mins followed by [gamma-33P]-ATP addition and measured after 120 mins by radiometric Hot-SpotSM Kinase assay relative to control.
The target in test [2] is T1, Cytoplasmic tyrosine-protein kinase BMX (Homo sapiens) (UniProt P51813).
T1 sequence (whole entry): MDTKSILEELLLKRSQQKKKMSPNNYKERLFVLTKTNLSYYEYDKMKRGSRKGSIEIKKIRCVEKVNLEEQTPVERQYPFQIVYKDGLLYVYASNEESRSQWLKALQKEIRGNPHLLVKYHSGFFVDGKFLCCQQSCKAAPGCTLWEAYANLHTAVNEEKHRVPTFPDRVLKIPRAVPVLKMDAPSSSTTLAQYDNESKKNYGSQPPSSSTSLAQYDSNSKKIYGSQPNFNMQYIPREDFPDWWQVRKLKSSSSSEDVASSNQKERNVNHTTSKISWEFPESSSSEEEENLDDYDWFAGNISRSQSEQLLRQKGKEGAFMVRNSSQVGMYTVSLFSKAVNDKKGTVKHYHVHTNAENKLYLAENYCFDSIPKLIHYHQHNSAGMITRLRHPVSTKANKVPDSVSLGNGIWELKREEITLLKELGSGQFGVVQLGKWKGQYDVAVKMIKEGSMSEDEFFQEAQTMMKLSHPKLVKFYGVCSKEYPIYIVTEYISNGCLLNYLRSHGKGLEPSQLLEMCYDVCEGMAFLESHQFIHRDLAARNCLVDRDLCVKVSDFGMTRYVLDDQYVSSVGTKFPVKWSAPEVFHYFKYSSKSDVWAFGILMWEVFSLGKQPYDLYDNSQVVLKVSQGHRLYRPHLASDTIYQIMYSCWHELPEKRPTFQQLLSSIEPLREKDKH
Kind of test: Inhibition of human BMX assessed as enzyme activity at 1 uM using poly[Glu:Tyr] (4:1) as substrate preincubated for 20 mins followed by [gamma-33P]-ATP addition and measured after 120 mins by radiometric Hot-SpotSM Kinase assay relative to control.

Test [3] deals with Epithelial discoidin domain-containing receptor 1 (Homo sapiens) (UniProt Q08345). Kind of test: Inhibition of human DDR1 assessed as enzyme activity at 1 uM using KKSRGDYMTMQIG as substrate preincubated for 20 mins followed by [gamma-33P]-ATP addition and measured after 120 mins by radiometric Hot-SpotSM Kinase assay relative to control.
Chain of Epithelial discoidin domain-containing receptor 1 (Homo sapiens) (Q08345 whole entry, the tested form may be a part): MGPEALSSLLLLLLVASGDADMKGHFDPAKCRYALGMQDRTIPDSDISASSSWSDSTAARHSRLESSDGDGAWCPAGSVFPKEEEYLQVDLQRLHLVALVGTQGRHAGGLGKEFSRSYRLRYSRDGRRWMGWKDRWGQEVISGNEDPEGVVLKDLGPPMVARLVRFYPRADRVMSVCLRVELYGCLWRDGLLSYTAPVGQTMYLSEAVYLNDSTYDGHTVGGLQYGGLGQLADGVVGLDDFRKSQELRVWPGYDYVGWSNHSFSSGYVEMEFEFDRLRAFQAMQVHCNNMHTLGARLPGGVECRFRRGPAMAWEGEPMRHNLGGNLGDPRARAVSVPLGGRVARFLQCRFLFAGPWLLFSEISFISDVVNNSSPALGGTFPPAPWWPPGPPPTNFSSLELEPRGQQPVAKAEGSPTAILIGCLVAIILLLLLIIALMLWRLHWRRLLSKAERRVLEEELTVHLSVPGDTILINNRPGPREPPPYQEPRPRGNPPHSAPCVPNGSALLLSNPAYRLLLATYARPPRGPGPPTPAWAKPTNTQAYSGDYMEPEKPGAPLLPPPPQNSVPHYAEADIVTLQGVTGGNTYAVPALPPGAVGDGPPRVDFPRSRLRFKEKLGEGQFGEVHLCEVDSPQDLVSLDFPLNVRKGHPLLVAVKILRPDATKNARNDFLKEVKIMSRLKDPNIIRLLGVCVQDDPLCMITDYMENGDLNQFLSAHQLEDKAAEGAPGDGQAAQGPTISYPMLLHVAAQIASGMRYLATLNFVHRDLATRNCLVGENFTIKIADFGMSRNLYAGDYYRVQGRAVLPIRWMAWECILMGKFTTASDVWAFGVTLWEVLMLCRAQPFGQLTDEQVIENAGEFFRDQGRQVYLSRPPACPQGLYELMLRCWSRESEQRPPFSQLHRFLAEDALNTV
In test [4] the target is Insulin receptor-related protein (Homo sapiens) (UniProt P14616). Kind of test: Inhibition of human IRR assessed as enzyme activity at 1 uM using myelin basic protein as substrate preincubated for 20 mins followed by [gamma-33P]-ATP addition and measured after 120 mins by radiometric Hot-SpotSM Kinase assay relative to control.
Chain of Insulin receptor-related protein (Homo sapiens) (P14616 27-742 limits assumed): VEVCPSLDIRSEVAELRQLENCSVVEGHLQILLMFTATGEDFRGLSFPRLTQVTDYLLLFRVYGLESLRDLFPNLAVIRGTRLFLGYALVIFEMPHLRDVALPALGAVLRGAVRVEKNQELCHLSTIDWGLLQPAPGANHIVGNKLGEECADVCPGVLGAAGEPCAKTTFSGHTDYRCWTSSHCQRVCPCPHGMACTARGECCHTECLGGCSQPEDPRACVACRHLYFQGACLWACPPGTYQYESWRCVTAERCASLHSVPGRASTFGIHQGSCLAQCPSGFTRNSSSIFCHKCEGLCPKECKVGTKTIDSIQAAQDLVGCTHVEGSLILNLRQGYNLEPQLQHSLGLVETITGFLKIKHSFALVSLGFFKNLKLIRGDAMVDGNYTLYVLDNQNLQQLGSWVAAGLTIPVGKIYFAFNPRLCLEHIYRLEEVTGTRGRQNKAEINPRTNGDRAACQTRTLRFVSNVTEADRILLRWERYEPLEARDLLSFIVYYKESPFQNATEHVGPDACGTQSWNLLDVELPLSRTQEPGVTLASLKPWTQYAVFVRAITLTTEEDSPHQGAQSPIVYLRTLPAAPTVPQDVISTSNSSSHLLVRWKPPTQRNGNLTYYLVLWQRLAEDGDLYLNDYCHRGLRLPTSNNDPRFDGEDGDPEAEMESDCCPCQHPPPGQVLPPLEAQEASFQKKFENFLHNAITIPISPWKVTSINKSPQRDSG
Chain of Insulin receptor-related protein (Homo sapiens) (P14616 747-1297 limits assumed): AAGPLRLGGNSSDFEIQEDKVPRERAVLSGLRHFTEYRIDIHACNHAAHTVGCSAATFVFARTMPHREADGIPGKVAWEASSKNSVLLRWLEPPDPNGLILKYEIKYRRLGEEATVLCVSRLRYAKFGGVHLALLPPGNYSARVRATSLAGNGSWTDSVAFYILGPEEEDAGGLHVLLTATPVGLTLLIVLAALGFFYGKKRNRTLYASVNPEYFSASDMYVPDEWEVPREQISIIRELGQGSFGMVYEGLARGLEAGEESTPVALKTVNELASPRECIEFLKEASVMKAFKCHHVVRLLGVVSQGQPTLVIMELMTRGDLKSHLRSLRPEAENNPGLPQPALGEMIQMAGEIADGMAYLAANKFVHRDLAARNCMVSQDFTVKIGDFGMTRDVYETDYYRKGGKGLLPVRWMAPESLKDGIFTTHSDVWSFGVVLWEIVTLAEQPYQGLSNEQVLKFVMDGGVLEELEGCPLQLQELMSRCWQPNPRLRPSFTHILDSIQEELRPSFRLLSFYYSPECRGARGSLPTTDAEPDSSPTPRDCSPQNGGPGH
Test [5] has as its target Dual specificity tyrosine-phosphorylation-regulated kinase 1B (Homo sapiens) (UniProt Q9Y463). Briefly: Inhibition of human DYRK1B assessed as enzyme activity at 1 uM using RRRFRPASPLRGPPK as substrate preincubated for 20 mins followed by [gamma-33P]-ATP addition and measured after 120 mins by radiometric Hot-SpotSM Kinase assay relative to control.
Test [6] addresses T2, Myosin-IIIb (Homo sapiens) (UniProt Q8WXR4).
T2 sequence (whole entry): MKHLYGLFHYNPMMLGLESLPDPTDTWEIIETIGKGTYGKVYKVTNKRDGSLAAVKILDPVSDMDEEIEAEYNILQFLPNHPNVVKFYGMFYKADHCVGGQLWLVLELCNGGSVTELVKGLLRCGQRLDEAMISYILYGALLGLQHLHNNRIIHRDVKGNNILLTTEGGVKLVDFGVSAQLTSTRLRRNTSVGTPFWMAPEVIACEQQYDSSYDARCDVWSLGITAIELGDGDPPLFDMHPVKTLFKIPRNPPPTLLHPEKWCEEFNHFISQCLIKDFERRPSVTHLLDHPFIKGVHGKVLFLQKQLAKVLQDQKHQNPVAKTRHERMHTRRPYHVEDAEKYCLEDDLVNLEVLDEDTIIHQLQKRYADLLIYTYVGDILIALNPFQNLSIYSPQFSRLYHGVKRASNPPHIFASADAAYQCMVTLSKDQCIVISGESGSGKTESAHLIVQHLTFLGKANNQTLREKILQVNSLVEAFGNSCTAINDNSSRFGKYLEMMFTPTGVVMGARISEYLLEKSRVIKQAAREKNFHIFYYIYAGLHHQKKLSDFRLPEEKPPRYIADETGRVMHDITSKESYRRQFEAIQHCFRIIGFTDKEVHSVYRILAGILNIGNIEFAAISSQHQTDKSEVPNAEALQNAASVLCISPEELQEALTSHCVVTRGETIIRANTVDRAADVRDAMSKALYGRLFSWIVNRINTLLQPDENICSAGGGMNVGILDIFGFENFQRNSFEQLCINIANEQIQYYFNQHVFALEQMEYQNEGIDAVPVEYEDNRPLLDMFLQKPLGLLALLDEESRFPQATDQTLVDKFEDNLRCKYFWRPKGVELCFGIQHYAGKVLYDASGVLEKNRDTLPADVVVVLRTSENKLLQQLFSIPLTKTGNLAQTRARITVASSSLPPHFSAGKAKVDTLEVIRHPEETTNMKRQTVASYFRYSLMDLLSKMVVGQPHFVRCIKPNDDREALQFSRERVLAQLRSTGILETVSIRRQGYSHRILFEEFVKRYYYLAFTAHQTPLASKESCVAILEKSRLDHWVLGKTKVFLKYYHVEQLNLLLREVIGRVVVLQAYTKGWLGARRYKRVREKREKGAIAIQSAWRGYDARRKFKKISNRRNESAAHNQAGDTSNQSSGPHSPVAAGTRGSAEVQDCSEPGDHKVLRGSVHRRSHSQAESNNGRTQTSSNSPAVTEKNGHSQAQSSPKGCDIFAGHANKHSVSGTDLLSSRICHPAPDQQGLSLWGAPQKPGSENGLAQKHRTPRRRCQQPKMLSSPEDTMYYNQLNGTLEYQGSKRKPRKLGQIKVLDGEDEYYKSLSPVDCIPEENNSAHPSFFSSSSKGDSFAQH
Kind of test: Inhibition of human MYO3b assessed as enzyme activity at 1 uM using myelin basic protein as substrate preincubated for 20 mins followed by [gamma-33P]-ATP addition and measured after 120 mins by radiometric Hot-SpotSM Kinase assay relative to control.

The target of test [7] is Serine/threonine-protein kinase 32C (Homo sapiens) (UniProt Q86UX6). Kind of test: Inhibition of human STK32C assessed as enzyme activity at 1 uM using myelin basic protein as substrate preincubated for 20 mins followed by [gamma-33P]-ATP addition and measured after 120 mins by radiometric Hot-SpotSM Kinase assay relative to control.
Chain of Serine/threonine-protein kinase 32C (Homo sapiens) (Q86UX6 whole entry): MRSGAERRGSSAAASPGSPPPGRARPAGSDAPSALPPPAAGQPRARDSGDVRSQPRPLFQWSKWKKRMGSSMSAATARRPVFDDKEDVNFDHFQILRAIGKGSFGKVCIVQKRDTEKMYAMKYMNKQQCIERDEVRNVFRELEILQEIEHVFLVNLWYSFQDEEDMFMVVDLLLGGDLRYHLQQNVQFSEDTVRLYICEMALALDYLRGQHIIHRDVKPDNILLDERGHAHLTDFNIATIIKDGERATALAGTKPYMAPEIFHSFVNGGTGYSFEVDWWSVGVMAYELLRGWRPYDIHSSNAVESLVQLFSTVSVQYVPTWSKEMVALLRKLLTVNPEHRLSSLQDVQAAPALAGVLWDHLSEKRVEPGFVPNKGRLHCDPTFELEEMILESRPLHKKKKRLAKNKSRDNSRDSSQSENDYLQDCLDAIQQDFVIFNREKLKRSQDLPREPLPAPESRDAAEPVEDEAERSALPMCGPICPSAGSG

Chain of Dual specificity tyrosine-phosphorylation-regulated kinase 1B (Homo sapiens) (Q9Y463 whole entry, looked up): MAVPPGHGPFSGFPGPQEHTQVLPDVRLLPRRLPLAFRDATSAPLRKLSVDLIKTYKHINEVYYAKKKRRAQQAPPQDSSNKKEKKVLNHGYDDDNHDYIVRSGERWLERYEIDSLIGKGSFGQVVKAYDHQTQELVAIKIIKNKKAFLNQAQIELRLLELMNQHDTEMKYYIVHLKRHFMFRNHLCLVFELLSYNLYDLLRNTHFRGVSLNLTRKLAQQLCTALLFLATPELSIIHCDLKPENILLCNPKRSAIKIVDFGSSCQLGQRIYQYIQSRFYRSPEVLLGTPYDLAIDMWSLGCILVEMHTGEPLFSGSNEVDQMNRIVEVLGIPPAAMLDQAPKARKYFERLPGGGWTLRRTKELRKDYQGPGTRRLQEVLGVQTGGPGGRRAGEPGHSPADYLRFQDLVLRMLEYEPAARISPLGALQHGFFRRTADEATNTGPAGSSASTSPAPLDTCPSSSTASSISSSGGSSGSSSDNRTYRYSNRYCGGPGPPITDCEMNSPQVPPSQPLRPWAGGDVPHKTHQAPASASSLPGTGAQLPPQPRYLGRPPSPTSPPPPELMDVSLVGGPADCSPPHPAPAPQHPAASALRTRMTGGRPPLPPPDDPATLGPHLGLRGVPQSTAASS
Chain of Tyrosine-protein kinase HCK (Homo sapiens) (P08631 2-526 limits assumed): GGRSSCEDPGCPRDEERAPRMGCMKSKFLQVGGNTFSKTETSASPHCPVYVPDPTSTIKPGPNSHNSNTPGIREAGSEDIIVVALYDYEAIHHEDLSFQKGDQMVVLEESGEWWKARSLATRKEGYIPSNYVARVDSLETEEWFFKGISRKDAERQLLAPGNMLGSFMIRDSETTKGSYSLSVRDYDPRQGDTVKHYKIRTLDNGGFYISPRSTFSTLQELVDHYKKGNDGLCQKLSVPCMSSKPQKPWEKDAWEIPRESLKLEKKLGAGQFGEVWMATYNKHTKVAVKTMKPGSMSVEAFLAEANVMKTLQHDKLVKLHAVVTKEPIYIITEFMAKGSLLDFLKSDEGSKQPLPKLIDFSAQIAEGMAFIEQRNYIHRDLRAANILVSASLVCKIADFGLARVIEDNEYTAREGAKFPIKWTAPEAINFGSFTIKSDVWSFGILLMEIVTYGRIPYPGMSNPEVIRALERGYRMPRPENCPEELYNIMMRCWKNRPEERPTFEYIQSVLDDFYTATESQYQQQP

With `C[C@H](Nc1ncnc2nc[nH]c12)c1cc2cccc(Cl)c2c(=O)n1-c1ccccc1`, the Activity came out at 98.7% in test [1]; 86.4% in test [2]; 88.6% in test [3]; 95.9% in test [4]; 99.8% in test [5]; 114% in test [6]. Further, in test [7], the Activity turned out to be 94.3%.

On to `CC[C@H](Nc1ncnc2[nH]cnc12)c1nc2cccc(F)c2c(=O)n1-c1ccccc1`, for which the Activity in test [1] is 93.9%; in test [2], 87.8%; in test [3], 83.8%; in test [4], 93.9%; in test [5] it was 99.2%; in test [6], 93.5%. The Activity in test [7] turned out to be 105%.

With `CC(C)Oc1ccc(-c2nn([C@@H](C)c3oc4ccc(F)cc4c(=O)c3-c3cccc(F)c3)c3ncnc(N)c23)cc1F` [UMBRALISIB], the Activity in test [1] was 91%; in test [2] it was 87.3%; in test [3], 83.1%; in test [4], 96.4%; in test [5] it was 96.2%; in test [6] it was 121%. Moreover, the Activity in test [7] is 111%.
